We go through four compounds from patent publication US20110146678A1, “PROCESS FOR IMPROVING CRYSTALLINITY” (priority 2008, published 2011).

Structures are written as SMILES. Counter-ions that a name gives are not always drawn.

Common to all, as to type: physicochemical
Data set [1] in a line: Aerosolisation efficiency of binary DPI formulations (0.4% w/w FP in lactose), NGI via Rotahaler. Particulars: optimal particles. Here is the method: The aerosolization efficiency of samples 2, 3 and 4 of engineered FP were evaluated using binary formulations containing 0.4% w/w FP.
Each binary formulation contained 0.016 g FP and 3.984 g lactose (ML001, DMV-Fonterra, Vehgel, Netherlands) and was prepared by geometric mixing. Following this, the blend was subsequently prepared using a Turbula T2F (Willy A Bachofen A G, Basel, Switzerland) at 46 rpm for 45 minutes.
Following content uniformity testing, 12.5±1 mg of each blend was loaded into size 3 hydroxypropylmethyl cellulose capsules (HPMC, Shionogi Qualicaps S A, Basingstoke, UK). The capsules were stored at 44% RH for 24 h prior to in vitro performance testing.
Testing was performed using a Next Generation Impactor (NGI) with pre-separator, which was connected to a vacuum pump (GE Motors). Prior to testing, the pre-separator was filled with 15 ml of mobile phase and the cups of the NGI cups were coated with 1% v/v silicone oil in hexane to eliminate particle bounce.
For each experiment, four individual capsules of the same formulation were discharged into the NGI at 60 Lpm for 4 s via a Rotahaler (GSK, Ware, UK) DPI device. Additionally, blisters from a Flixotide Diskus (GSK, Ware, UK) were emptied and loaded into size 3 HPMS capsules and discharged into a NGI at 60 Lpm1 for 4 s via a Rotahaler. Following aerosolization, the NGI apparatus was dismantled and the inhaler, capsules and each part of the NGI was washed down into known volumes of HPLC mobile phase.
The mass of drug deposited on each part of the NGI was determined by HPLC. This protocol was repeated three times for each blend, following which, the mass median aerodynamic diameter (MMAD), geometric standard deviation (GSD), fine particle dose (FPD) and fine particle fraction of the emitted dose (FPFED) were determined. The FPD represented the mass of drug that was collected on stages 3-8 of the NGI.

Data set [2] is described as follows: Respirable fraction / FPF by Next Generation Impactor (general summary). Particulars: particles of the present invention vs prior art. An excerpt:
The particle size distribution of the aerosol formulations according to the invention may be measured by conventional techniques, for example by using a Next Generation Impactor (NGI) with pre-separator for example by cascade impaction or by the “Twin Impinger” analytical process. As used herein reference to the “Twin Impinger” assay means “Determination of the deposition of the emitted dose in pressurised inhalations using apparatus A” as defined in British Pharmacopoeia 1988, pages A204-207, Appendix XVII C. Such methods involve filling the pre-separator with HPLC mobile phase and the cups of the NGI cups were coated with 1% v/v silicone oil in hexane to eliminate particle bounce. […] The mass of drug deposited on each part of the NGI can then be determined by HPLC. The FPD determined represents the mass of drug collected on stages 3-8 of the NGI. The FPF emitted dose is also determined. The aerosolisation efficiency as determined by percentage fine particle fraction (% FPF) or respirable fraction is also assessed.
Such techniques enable the “respirable fraction” of the aerosol formulations to be calculated. As used herein reference to “respirable fraction” means the amount of active ingredient collected in the lower chamber in the NGI per actuation expressed as a percentage of the total amount of active ingredient delivered per actuation using the method described above. […]

A short description of data set [3]: pMDI formulation, particle fraction distribution on NGI stages. The note with it: stage 5 cut-off 1.36 μm. Here is the method: Both samples were produced in a similar manner to sample 2 of Example 2. Sample 1 was prepared from atomization of a 3% solution of fluticasone propionate in 20% dichloromethane in methanol (3 g in 100 ml) and Sample 5 was prepared from atomization of 3% solution in acetone (3 g in 100 ml). […] The FPF values were 11.80% and 13.80% on stage 5 for samples 5 and 1 respectively compared with 6.20% for micronized material.

With `CCC(=O)O[C@]1(C(=O)SCF)[C@H](C)C[C@H]2[C@@H]3C[C@H](F)C4=CC(=O)C=C[C@]4(C)[C@@]3(F)[C@@H](O)C[C@@]21C` [fluticasone propionate], in data set [1], the “FPF greater than micronized/milled” value stood at 54% and the “FPF greater than precipitated material” value is “over 200%”. For the same compound, the “increase in FPF compared to the prior art” value in data set [2] is 50-60%.

For `CC(Cc1ccc(O)cc1)NCC(O)c1cc(O)cc(O)c1` (stereo not drawn) [Fenoterol hydrobromide], the “increase in FPF compared to the prior art” value in data set [2] is reported as 30-50%. In the case of `CCC(=O)O[C@]1(C(=O)SCF)[C@H](C)C[C@H]2[C@@H]3C[C@H](F)C4=CC(=O)C=C[C@]4(C)[C@@]3(F)[C@@H](O)C[C@@]21C` [Sample 1, fluticasone propionate], the “FPF on stage 5 of the NGI” value in data set [3] was determined as 13.80%. With `CCC(=O)O[C@]1(C(=O)SCF)[C@H](C)C[C@H]2[C@@H]3C[C@H](F)C4=CC(=O)C=C[C@]4(C)[C@@]3(F)[C@@H](O)C[C@@]21C` [Sample 5, fluticasone propionate], the “FPF on stage 5 of the NGI” value in data set [3] was 11.80%.
